# Experimental data published in US9884046B1, “Method of treating lung cancer” (Macau University of Science and Technology, priority 2017, dated 2018).
# Key:
# [1] = molecular target: KRAS (Homo sapiens, UniProt P01116); test: Bio-layer interferometry, His-KRAS on Ni-NTA biosensors; assay type: binding; settings: BLI
# Method: The interaction between KRAS and compound 0375-0604 was determined by bio-layer interferometry using an Octet Red 96 instrument (FortéBio Inc.). Ni-NTA Biosensors tips (FortéBio, Inc., Menlo Park, Calif.) were prewetted with PBS to establish a baseline before immobilization. His-KRAS was then immobilized onto Ni-NTA Biosensors. The experiments comprised five steps: (1) baseline acquisition, (2) KRAS loading onto the sensor, (3) second baseline acquisition, (4) association of compound 0375-0604 for the measurement of kon, and (5) dissociation of compound 0375-0604 for the measurement of koff. Six concentrations of compound 0375-0604 were used for detection. The association and dissociation plot and kinetic constants were obtained with FortéBio data analysis software. Equilibrium dissociation constants (Kd) were calculated in the ratio of koff to kon.
# Bio-layer interferometry assay (BLI), a label-free technology, was used to measure the biomolecular interaction between KRAS and compound 0375-0604. In this study, the His-labeled KRAS protein was immobilized on the Ni-NTA (NTA) Biosensors. […] Experimental data for association and dissociation are represented on the left and right side.
# [2] = test system: H358 cells; test: MTT cell viability assay, H358; assay type: cell-based; settings: Homo sapiens, NCI-H358, H358 (KRAS G12C)
# Method: (§1) H2122, H460 and H358 cells were purchased from ATCC and cultivated with Roswell Park Memorial Institute (RPMI) 1640 medium supplemented with 10% fetal bovine serum (Gibco, Big Cabin, Oklahoma, Me., USA), 100 U/mL penicillin and 100 μg/mL streptomycin (Gibco, Big Cabin, Oklahoma, Me., USA). All the cells were cultivated at 37° C. with 5% CO2 incubator. Cells were seeded on a 96-well microplate with 3000, 4000 or 5000 cells/well, and were cultured overnight for cell adhesion. Different concentrations of compound 0375-0604 were added to the microplates, and the plates were incubated for 24, 48 or 72 h. Each dosage was repeated as triplicate. 10 μL MTT (5 mg/mL) solution was added to every well. After incubation for 4 h, 100 μL dimethyl sulfoxide (DMSO) was added to each well. After shaking for 15 min, the absorbance of the plate was measured at 570 nm (absorbance) and 650 nm (reference) by a microplate reader (Tecan, Morrisville, N.C., USA).
# (§2) The cytotoxicity of compound 0375-0604 was determined by MTT assay. The effect of compound 0375-0604 on three NSCLC cell lines, H2122, H358 and H460 was examined. H2122, H358 and H460 are harboring KRAS-activating mutations. H2122 and H358 cells have mutant KRAS that includes an amino acid substitution from a glycine to a cysteine at codon or position 12 (i.e. mutant KRAS ^G12C). H460 cells have mutant KRAS that includes an amino acid substitution from a glutamine to a histidine at codon or position 61 (i.e. mutant KRAS Q61H).
# (§3) Cells were incubated with compound 0375-0604 at different concentrations (0, 25, 50, 100 μM) for 24, 48, and 72 h. As shown in FIGS. 3A-3C, the cell viability of three NSCLC cell lines was decreased by the treatment of compound 0375-0604 in a dose-dependent and time-dependent manner.
# [3] = test system: H2122 cells; test: MTT cell viability assay, H2122; assay type: cell-based; settings: Homo sapiens, NCI-H2122, H2122 (KRAS G12C)
# Method: as §1, §2, §3
# [4] = test system: H460 cells; test: MTT cell viability assay, H460; assay type: cell-based; settings: Homo sapiens, NCI-H460, H460 (KRAS Q61H)
# Method: as §1, §2, §3
# [5] = test system: phosphorylation of CRAF (p-CRAF); test: Western blot of KRAS downstream signaling; assay type: cell-based; settings: H2122, H460 and H358 cells, 24, 48 and 72 h, versus untreated cells
# Method: After treatment with compound 0375-0604 for 24 h, 48 h or 72 h, radioimmunoprecipitation assay (RIPA) lysis buffer which contains protease and phosphatase inhibitors, was added to extract the whole cell protein. Bio-Rad DC™ protein assay kit (Bio-Rad, Philadelphia, Pa., USA) was used to quantify the protein. 30 μg protein lysate were loaded and separated by 10% sodium dodecyl sulfate (SDS)-polyacrylamide gel electrophoresis and transferred to a nitrocellulose (NC) membrane. The membranes were incubated with the primary antibody (1:2000) and then with a fluorescence-conjugated secondary antibody (1:10000). Glyceraldehyde 3-phosphate dehydrogenase (GAPDH) was used as the loading control for normalization. The signal of the membranes was scanned with a LI-COR Odyssey Scanner (Belfast, Me., USA).
# Untreated cells were used as control.
# [6] = test system: GTP-bound KRAS; test: RAS-binding domain pull-down (RBD:PD) assay; assay type: cell-based; settings: H358 cells, 24 h, 50 and 100 μM
# Method: RAS activity was detected using the RAS Activation Assay Kit from Upstate-Millipore. The whole cell lysates were incubated with Glutathione S-transferase-[…]-binding domain (GST-RBD) and glutathione beads for 1 h. Agarose beads were pelleted by centrifugation and washed 3 times with Mg^2+ lysis buffer. Agarose beads were re-suspended in loading buffer. Samples were analyzed by the western blotting as previously described and blots probed using anti-KRAS antibody (sc-30, SANTA).
# KRAS mutant cells (H358) were treated with compound 0375-0604 for 24 h. After 24 h treatment, cells were collected and determined by a RAS-binding domain pull-down (RBD:PD) assay and immunoblotting with a KRAS-specific antibody.
# [7] = test system: H358 cells; test: Cell cycle analysis by PI staining and flow cytometry; assay type: cell-based; settings: H358 cells, 50, 100 μM, 24 h
# Method: H358 cells were plated with 2.0×10^5 cells/well at a 6-well plate and cultured overnight for attachment. After treatment with compound 0375-0604 at 0, 50, 100 μM for 24 h, all cells were harvested by trypsin, and centrifuged at 1000 rpm, at room temperature for 5 min. Cells pellets were re-suspended in 70% ethanol at 4° C. for 30 min. Cells were centrifuged at 1000 rpm for 5 min to remove all the ethanol. Each cell pellet was re-suspended in 300 μL Propidium iodide (PI) staining solution at 37° C. for 30 min in the dark. The cells were then washed twice with phosphate-buffered saline (PBS). Finally, cells were re-suspended in 300 μL PBS and transferred to the flow cytometer (BD FACS Aria III).
# H358 cells were treated with compound 0375-0604 at different concentrations (0, 50, 100 μM) for 24 h, and stained with Propidium iodide (PI). The samples were analyzed by flow cytometry.
# Sequence of KRAS (P01116 1-188 isoform P01116-2): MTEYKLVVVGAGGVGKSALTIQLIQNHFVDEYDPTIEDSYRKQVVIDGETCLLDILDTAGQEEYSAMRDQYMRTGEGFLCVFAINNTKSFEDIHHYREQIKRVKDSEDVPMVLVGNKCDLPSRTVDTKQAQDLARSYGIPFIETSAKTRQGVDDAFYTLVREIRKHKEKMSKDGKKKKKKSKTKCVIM
structure (smiles),measurement,setting,value
Nc1ccc(Sc2nc3ccccc3s2)c(Cl)c1 [compound 0375-0604],koff,[1]; 1.56-50 μM compound,2.12E-01 S^−1
same,kon,[1]; 1.56-50 μM compound,1.83E+04 M^−1 S^−1
same,Kd,[1]; calculated as ratio of koff to kon,11.6 µM
same,IC50,[2]; 24 h,> 100 µM
same,IC50,[2]; 48 h,> 100 µM
same,IC50,[2]; 72 h,63.8 ± 3.89 µM
same,IC50,[3]; 24 h,> 100 µM
same,IC50,[3]; 48 h,> 100 µM
same,IC50,[3]; 72 h,39.6 ± 3.09 µM
same,IC50,[4]; 24 h,> 100 µM
same,IC50,[4]; 48 h,100 ± 13.3 µM
same,IC50,[4]; 72 h,66 ± 11.8 µM
same,level of phosphorylation of CRAF (p-CRAF),[5],decreased
same,level of GTP-bound KRAS,[6],inhibited
same,percentage of cells in G0/G1 phase,[7],slightly decreased
same,percentage of cells in G2/M phase,[7],increased
